# Data as given in ChEMBL document CHEMBL1157260, “Cytotoxic diterpenes from Cassipourea madagascariensis from the Madagascar rainforest” (J Nat Prod, 2006).
# Test system: A2780
# Assay: Cytotoxicity against human A2780 cells by clonogenic assay
# Format: functional, cell-based
row,Compound,IC50 [µg/mL]
1,C=C(CO)[C@@H]1CC[C@]2(C)CC[C@]3(C)[C@H](CC[C@@H]4[C@@]5(C)CCC(=O)C(C)(C)[C@@H]5CC[C@]43C)[C@@H]12,16.4
2,C=C(CO)[C@@H]1CC[C@]2(C)CC[C@]3(C)[C@H](CC[C@@H]4[C@@]5(C)CC[C@H](O)C(C)(C)[C@@H]5CC[C@]43C)[C@@H]12,12.2
3,C/C(=C\CO)CCCC(C)CC[C@H]1[C@@H](C)CCCC1(C)C (stereo not given in full) [CASSIPOUROL],2.4
4,CC(=O)OC/C=C(\C)CCCC(C)CC[C@H]1[C@@H](C)CCCC1(C)C (stereo not given in full) [CASSIPOURYL ACETATE],2.8
5,COc1cc(O)c2c(=O)c(OC)c(-c3cc(OC)c(OC)c(OC)c3)oc2c1 [COMBRETOL],8.7
